According to patent US20230167088A1, “1-PYRAZINYLPYRAZOLYL-3-OXYALKYL ACIDS AND THEIR DERIVATIVES, AND THEIR USE FOR CONTROL OF UNDESIRED PLANT GROWTH” (BAYER AKTIENGESELLSCHAFT, priority 2020, published 2023):

Tests used:
DIGSA [1] = test: Herbicidal pre-emergence action 2b (doubly sown, 1280 g/ha); assay type: in vivo, Digitaria sanguinalis; conditions: doubly sown pots, dosage 1280 g/ha, visual scoring after about 3 weeks
In short: (§1)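 Seeds are placed in sandy loam and covered, then the formulated compound is applied to the covering soil in water equivalent to 600 litres per hectare with 0.5% additive. Pots stay in the greenhouse under good growth conditions. Activity is rated visually as a percentage of untreated controls after about three weeks.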

POAAN [2] = test: as above; assay type: in vivo, Poa annua; conditions: doubly sown pots, dosage 1280 g/ha, visual scoring after about 3 weeks
In short: as §1

STEME [3] = test: Herbicidal post-emergence action 1b (twin sowing, 1280 g/ha); assay type: in vivo, Stellaria media; conditions: dosage 1280 g/ha, visual rating about 3 weeks after treatment
In short: (§2)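 Post-emergence foliar spray on one-leaf weeds grown two species per pot in sandy loam; ~3 weeks later, visual rating from 0% (as control) to 100% (plants died).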

MATIN [4] = test: Herbicidal pre-emergence action 2b (doubly sown, 1280 g/ha); assay type: in vivo, Matricaria inodora; conditions: doubly sown pots, dosage 1280 g/ha, visual scoring after about 3 weeks
In short: as §1

ECHCG [5] = test: as above; assay type: in vivo, Echinochloa crus-galli; conditions: doubly sown pots, dosage 1280 g/ha, visual scoring after about 3 weeks
In short: as §1

ECHCG [6] = test: Herbicidal post-emergence action 1b (twin sowing, 1280 g/ha); assay type: in vivo, Echinochloa crus-galli; conditions: dosage 1280 g/ha, visual rating about 3 weeks after treatment
Procedure: (§3) [table] b) Seeds of mono- and dicotyledonous weed plants are placed in plastic pots in sandy loam soil (twin sowing with one species each of mono- or dicotyledonous weed plants per pot), covered with soil and cultivated in a greenhouse under controlled growth conditions. 2 to 3 weeks after sowing, the test plants are treated at the one-leaf stage. The compounds of the invention, formulated in the form of wettable powders (WP) or as emulsion concentrates (EC), are applied to the green parts of the plants as aqueous suspension or emulsion with addition of 0.5% additive at a water application rate equivalent to 600 litres per hectare. After the test plants have been kept in the greenhouse under optimum growth conditions for about 3 weeks, the activity of the preparations is rated visually in comparison to untreated controls. For example, 100% activity=the plants have died, 0% activity=like control plants. Tables A16 to A21 below show the effects of selected compounds of the general formula (I) according to Tables 1 and 2 on various harmful plants and at an application rate corresponding to 1280 g/ha, which were obtained by the experimental procedure mentioned above.

DIGSA [7] = test: as above; assay type: in vivo, Digitaria sanguinalis; conditions: dosage 1280 g/ha, visual rating about 3 weeks after treatment
Procedure: as §3

AMARE [8] = test: Herbicidal pre-emergence action 2b (doubly sown, 1280 g/ha); assay type: in vivo, Amaranthus retroflexus; conditions: doubly sown pots, dosage 1280 g/ha, visual scoring after about 3 weeks
In short: as §1

MATIN [9] = test: Herbicidal post-emergence action 1b (twin sowing, 1280 g/ha); assay type: in vivo, Matricaria inodora; conditions: dosage 1280 g/ha, visual rating about 3 weeks after treatment
In short: as §2

STEME [10] = test: Herbicidal pre-emergence action 2b (doubly sown, 1280 g/ha); assay type: in vivo, Stellaria media; conditions: doubly sown pots, dosage 1280 g/ha, visual scoring after about 3 weeks
In short: as §1

ABUTH = test: Herbicidal post-emergence action 1b (twin sowing, 1280 g/ha); assay type: in vivo, Abutilon theophrasti; conditions: dosage 1280 g/ha, visual rating about 3 weeks after treatment
Procedure: as §3

POAAN [11] = test: as above; assay type: in vivo, Poa annua; conditions: dosage 1280 g/ha, visual rating about 3 weeks after treatment
In short: as §2

DIGSA [12] = test: Herbicidal pre-emergence action 2a (greenhouse pots, visual scoring); assay type: in vivo, Digitaria sanguinalis; conditions: dosage 80 g/ha, visual scoring after about 3 weeks
Description: [table] a) Seeds of monocotyledonous and dicotyledonous weed plants and crop plants are placed in plastic or organic plant pots and covered with soil. The compounds of the invention, formulated in the form of wettable powders (WP) or as emulsion concentrates (EC), are then applied onto the surface of the covering soil as aqueous suspension or emulsion with addition of 0.5% additive at a water application rate of 600 1/ha (converted). After the treatment, the pots are placed in a greenhouse and kept under good growth conditions for the trial plants. After about 3 weeks, the effect of the preparations is scored visually in comparison with untreated controls as percentages. For example, 100% activity=the plants have died, 0% activity=like control plants. Tables B1 to B15 below show the effects of selected compounds of the general formula (I) according to Tables 1 and 2 on various harmful plants and an application rate corresponding to 320 g/ha and/or 80 g/ha, which were obtained by the experimental procedure mentioned above.

DIGSA [13] = test: Herbicidal post-emergence action 1a (greenhouse pots, visual rating); assay type: in vivo, Digitaria sanguinalis; conditions: Dosage 80 g/ha; rated visually about 3 weeks after treatment; 100% = plants have died, 0% = like control plants
Procedure: (§4) [table] a) Seeds of monocotyledonous and dicotyledonous weeds and crop plants are placed in sandy loam in plastic or organic plant pots, covered with soil and cultivated in a greenhouse under controlled growth conditions. 2 to 3 weeks after sowing, the test plants are treated at the one-leaf stage. The compounds of the invention, formulated in the form of wettable powders (WP) or as emulsion concentrates (EC), are then sprayed onto the green parts of the plants as aqueous suspension or emulsion with addition of 0.5% additive at a water application rate of 600 1/ha (converted). After the test plants have been kept in the greenhouse under optimum growth conditions for about 3 weeks, the activity of the preparations is rated visually in comparison to untreated controls. For example, 100% activity=the plants have died, 0% activity=like control plants. Tables A1 to A15 below show the effects of selected compounds of the general formula (I) according to Tables 1 and 2 on various harmful plants and an application rate corresponding to 320 g/ha and/or 80 g/ha, which were obtained by the experimental procedure mentioned above.

ALOMY [14] = test: as above; assay type: in vivo, Alopecurus myosuroides; conditions: Dosage 80 g/ha; rated visually about 3 weeks after treatment; 100% = plants have died, 0% = like control plants
In short: (§5)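 Weeds and crops sown in sandy loam in greenhouse pots were sprayed post-emergence at the one-leaf stage (2–3 weeks after sowing) with WP or EC formulations plus 0.5% additive at 600 l/ha water, 320 and/or 80 g/ha. About 3 weeks later damage was rated visually against untreated controls (0% = no effect, 100% = dead).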

AMARE [15] = test: as above; assay type: in vivo, Amaranthus retroflexus; conditions: dosage 80 g/ha, visual rating about 3 weeks after treatment
In short: as §5

PHBPU = test: as above; assay type: in vivo, Pharbitis purpurea; conditions: dosage 80 g/ha, visual rating about 3 weeks after treatment
In short: as §5

AMARE [16] = test: Herbicidal pre-emergence action 2a (greenhouse pots, visual scoring); assay type: in vivo, Amaranthus retroflexus; conditions: visual scoring after about 3 weeks vs untreated controls
In short: (§6)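 Seeds were sown in pots, covered with soil, and the compound (WP or EC formulation) was sprayed onto the soil surface as an aqueous suspension or emulsion with 0.5% additive at 600 l/ha water, at 320 g/ha and/or 80 g/ha. Greenhouse growth followed for about 3 weeks, then visual scoring against untreated controls.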

ALOMY [17] = test: as above; assay type: in vivo, Alopecurus myosuroides; conditions: dosage 320 g/ha, visual scoring after about 3 weeks
In short: as §6

VERPE [18] = test: as above; assay type: in vivo, Veronica persica; conditions: dosage 320 g/ha, visual scoring after about 3 weeks vs untreated controls
In short: as §6

LOLRI = test: as above; assay type: in vivo, Lolium rigidum; conditions: dosage 320 g/ha, visual scoring after about 3 weeks vs untreated controls
In short: as §6

VIOTR [19] = test: as above; assay type: in vivo, Viola tricolor; conditions: dosage 320 g/ha, visual scoring after about 3 weeks vs untreated controls
In short: as §6

MATIN [20] = test: as above; assay type: in vivo, Matricaria inodora; conditions: dosage 320 g/ha, visual scoring after about 3 weeks vs untreated controls
In short: as §6

SETVI = test: as above; assay type: in vivo, Setaria viridis; conditions: dosage 320 g/ha, visual scoring after about 3 weeks vs untreated controls
In short: as §6

VIOTR [21] = test: Herbicidal post-emergence action 1a (greenhouse pots, visual rating); assay type: in vivo, Viola tricolor; conditions: dosage 80 g/ha, visual rating about 3 weeks after treatment
Procedure: as §4

VERPE [22] = test: as above; assay type: in vivo, Veronica persica; conditions: dosage 80 g/ha, visual rating about 3 weeks after treatment
In short: as §5

SMILES	Pre-emergence action at 1280 g/ha against DIGSA in % (DIGSA [1]) [%]	Pre-emergence action at 1280 g/ha against POAAN in % (POAAN [2]) [%]	Post-emergence action at 1280 g/ha against STEME in % (STEME [3]) [%]	Pre-emergence action at 1280 g/ha against MATIN in % (MATIN [4]) [%]	Pre-emergence action at 1280 g/ha against ECHCG in % (ECHCG [5]) [%]	Post-emergence action at 1280 g/ha against ECHCG in % (ECHCG [6]) [%]	Post-emergence action at 1280 g/ha against DIGSA in % (DIGSA [7]) [%]	Pre-emergence action at 1280 g/ha against AMARE in % (AMARE [8]) [%]	Post-emergence action at 1280 g/ha against MATIN in % (MATIN [9]) [%]	Pre-emergence action at 1280 g/ha against STEME in % (STEME [10]) [%]	Post-emergence action at 1280 g/ha against ABUTH in % (ABUTH) [%]	Post-emergence action at 1280 g/ha against POAAN in % (POAAN [11]) [%]	Post-emergence action against ALOMY in % (ALOMY [14]) [%]	further results
O=C(O)COc1nn(-c2cnccn2)c(-c2ccc(F)nc2)c1Br [Example I-49, {[4-bromo-5-(6-fluoropyridin-3-yl)-1-(pyrazin-2-yl)-1H-pyrazol-3-yl]oxy}acetic acid]	100	100	90	100	100	100	90	100	100	100	100	100	–	–
O=C(COc1nn(-c2cnccn2)c(-c2ccc(F)nc2)c1Br)OCc1ccccn1 [Example I-70]	100	100	100	100	100	90	100	100	100	100	100	–	–	–
CC(Oc1nn(-c2cnccn2)c(-c2ccc(F)c(F)c2)c1Br)C(=O)O (stereo not drawn) [Example I-47]	100	100	100	100	100	100	100	100	90	100	90	100	90	Pre-emergence action against DIGSA in % (DIGSA [12]): 100%; Post-emergence action against DIGSA in % (DIGSA [13]): 80%; Post-emergence action against AMARE in % (AMARE [15]): 80%; Post-emergence action against PHBPU in % (PHBPU): 80%; Pre-emergence action against AMARE in % (AMARE [16]; dosage 80 g/ha): 90%
N#CCOC(=O)COc1nn(-c2cnccn2)c(-c2ccc(F)nc2)c1Br [Example I-65]	100	100	90	100	100	90	100	100	100	100	90	100	80	Pre-emergence action against ALOMY in % (ALOMY [17]): 90%; Pre-emergence action against VERPE in % (VERPE [18]): 90%; Pre-emergence action against LOLRI in % (LOLRI): 80%; Pre-emergence action against VIOTR in % (VIOTR [19]): 90%; Pre-emergence action against MATIN in % (MATIN [20]): 90%; Pre-emergence action against SETVI in % (SETVI): 100%; Post-emergence action against VIOTR in % (VIOTR [21]): 80%; Post-emergence action against VERPE in % (VERPE [22]): 80%; Pre-emergence action against AMARE in % (AMARE [16]; dosage 320 g/ha): 100%
